Entries after “also recorded” stand apart in the source; their conditions may differ. Bridge positions count the residues as written; N and C are the ends. Ends that are not written are not given here.

The source of these data is patent US9737622B2, “Compounds modulators of VEGF activity and uses thereof” (ADVANCED ACCELERATOR APPLICATIONS S.A., priority 2009, dated 2017).

For experiment [1], the system named is HUVEC cells. The experiment can be described thus: Caspase 3 fluorimetric assay in serum-starved HUVEC. To be noted: for effect of VEGF on caspase-3 activity (rescue) when peptide is added: in presence of VEGF, 8 hours. It counts as cell-based, human. The procedure: Determination of caspase-3 activity was performed by a fluorometric assay based on the proteolytic cleavage of the AMC-derived substrate N-acetil-DEVD-AMC, which yields a fluorescent product.
HUVEC cells were plated in 6-well dishes at 1×10^5 cells/cm^2. On the next day, cells were treated, in starvation medium (EBM-2, heparin 0.1%, BSA 0.1%), with Pep #3 (25-100 ng/ml) or scrambled Pep RND (100 ng/ml) peptides for 8 h at 37° C. VEGF165 (R & D Systems, Minneapolis, Minn., USA), 25 ng/ml, was used as positive control.
After 8 h the cells were processed with 150 μl of Caspase-3 reaction buffer (HEPES pH 7.5 50 mM, EDTA 0.1 mM, NP-40 0.1%, CHAPS 0.1%, DTT 1 mM) and cell proteins collected after centrifugation at 13000 rpm for 15 min at 4° C. Protein concentrations were determined by Bradford method (Bio-Rad, Hercules, Calif.) and 20 μg of lysates were incubated in 96-well plates with 20 μM N-acetil-DEVD-AMC at 37° C. for 3 h.
Samples were analyzed using a microplate reader (L55 Luminescence Spectometrer Perkin Elmer Instruments) (excitation: 360 nm, emission: 440 nm).
To investigate the biological activity of the designed peptides the authors analyzed the activation of caspase 3 in human primary endothelial (HUVEC) cells serum-deprived by means of a caspase-3 fluorimetric assay. It is well known that VEGF act as survival factor for ECs. […] Experiments were performed on serum starved HUVEC treated with designed peptides in presence or absence of VEGF in order to highlight an antagonist or agonist (VEGF-like) activity respectively. The biological activity of the analyzed compounds is reported as percentage of VEGF rescue (FIG. 1). The decrease of the caspase-3 activity following VEGF incubation is set to 100% rescue.

Another experiment deals with VEGF receptors. The experiment can be described thus: Biological and in vivo assays, summary of angiogenic activity. Conditions: summary statement. An excerpt:
The compounds have application in diagnosis and treatment of pathologies depending on angiogenesis, especially they can be used in therapy of […].

A further experiment relates to ERK1/2. The experiment can be described thus: Western blot of phospho ERK1/2 in HUVEC. It counts as cell-based, human. As to the method:
Cells were plated in 12-well dishes at 1×10^5 cells/cm^2. On the next day, cells were treated, in starvation medium (EBM-2, heparin 0.1%, BSA 0.1%) with Pep #3 (25-100 ng/ml) or Pep RND (100 ng/ml) peptides for 15 min and 30 min at 37° C. VEGF165 (R & D Systems, Minneapolis, Minn., USA) 25 ng/ml was used as positive control. After treatment, whole cell lysates were obtained by using RIPA lysis buffer (Tris 50 mM pH 7.5, NaCl 150 mM, NP-40 1%, EGTA 1 mM, SDS 0.05%) supplemented with Complete Protease Inhibitors and Phosphate Inhibitors (Pierce Biotechnology, Rockford, Ill.). Cell proteins were then collected after centrifugation and protein content was determined by Bradford method (Bio-Rad, Hercules, Calif.). Proteins were separated by electrophoresis on SDS-polyacrylamide gels and transferred to nitrocellulose membrane (Millipore Corp., Bedford, Mass.) by semi-dry electroblotting (Transblot; Bio-Rad Laboratories, Hercules, Calif.).
The serine-tyrosine-phosphorilated ERK1/2 (polyclonal antibody, Cell Signaling Technology, Inc. Danvers, Mass., USA) and aGAPDH (monoclonal antibody 6C5, Santa Cruz Biotechnology, Inc., Santa Cruz, Calif.) were visualized by specific antibodies, anti-rabbit and anti-mouse horseradish peroxidase-conjugated secondary antibody (Jackson Immunoresearch Laboratories, Inc, Baltimor Pike; Pa., USA) standard chemiluminescence (Pierce Biotechnology, Rockford, Ill.).
VEGF-modulated angiogenesis is largely ERK1/2-dependent, leading to DNA synthesis and cell proliferation. […] The authors therefore investigated whether peptide #3 could also induce ERK and AKT activation like VEGF. […] Scrambled Pep-RND had no effect on ERK1/2 and AKT activation, proving that it is unable to activate intracellular signaling (FIG. 2A).
(In general: In western blotting, separated proteins are transferred to a membrane and probed.)

Another experiment deals with blood vessel development. The experiment is described as follows: Directed In Vivo Angiogenesis Angioreactor (DIVAA). On the set-up: species or system CD1 mice. To be noted: mice, 21 days. The procedure: Female CD1 mice (20-25 g) were supplied by Charles-River (Italy) and kept in temperature- and humidity-controlled rooms (22° C., 50%) with lights on from 07:00 to 19:00 h, water and food available ad libitum. All procedures were carried out in accordance with the Italian law (Legislative Decree no. 116, 27 Jan. 1992), which acknowledges the European Directive 86/609/EEC, and were fully compliant with GlaxoSmithKline policy on the care and use of laboratory animal and codes of practice. Furthermore, all efforts were made to minimize the number of animals used and their suffering.
Sterile silicone cylinders closed at one end, called angioreactors (Cultrex, Trevigen, Inc. Helgerman Conn., Gaithersburg), were filled with 20 μL of basement membrane extract (BME) premixed with or without angiogenesis factors (VEGF, FGF) to obtain positive and negative controls respectively. […]
Vessel formation evaluation was performed after 21 days. […] Subsequently, cells were incubated with FITC-Lectin reagent (available in the kit) and then observed by fluorescence microscope (ZEISS, German).
Pro-angiogenic peptide #3 activity was also assayed in an in vivo test using DIVAA (Directed in Vivo Angiogenesis Angioreactor). DIVAA test is performed by implanting angioreactors into the dorsal flank of mice; this allows a quantitative assessment of blood vessel development. […]

The test system of experiment [2] is HUVEC cells. The experiment is described as follows: Cell proliferation assay (CyQUANT NF). Type of experiment: cell-based, human. The procedure: HUVEC cells were plated at density of 1200 cells/well in 96-well poly-D-lysine-coated microplates (Becton Dickinson, Franklin Lakes, N.J. USA). After 24 hours incubation in starvation medium (EBM-2, heparin 0.1%, BSA 0.1%), cells were treated with VEGF165 25 ng/ml (R & D Systems, Minneapolis, Minn., USA), with Pep #3 (10-25-50-100 ng/ml) or Pep RND (100 ng/ml). Cell proliferation was determined by using CyQUANT® NF Cell Proliferation Assay Kit (Molecular Probes, Invitrogen S.R.L., Milano, Italy) at 24, 48 and 72 hour after treatment. CyQUANT® NF assay is based on cellular DNA content measurement via fluorescent dye binding. Because cellular DNA content is highly regulated, it is closely proportional to cell number. Briefly, medium was removed and cells incubated with CyQUANT NF reagent for 1 hour at 37° C. according to the manufacturer's instructions. Plates were then analyzed by using a microplate reader (L55 Luminescence Spectometrer Perkin Elmer Instruments) (excitation: 485 nm, emission: 520 nm).
To evaluate whether peptide #3 induces cellular proliferation, a cell proliferation assay was performed on HUVEC cells treated, in serum deprivation conditions, with pep #3 (10-25-50-100 ng/ml) or Pep RND (100 ng/ml). After 24, 48 and 72 hours of treatment cell proliferation was measured by CyQUANT® NF Cell Proliferation Assay Kit. […] This effect is evident at 24, 48 and 72 hours. […]

In another experiment the test system is AKT. The experiment is described as follows: Western blot of phospho AKT in HUVEC. It counts as cell-based, human. To be noted: serum deprivation, 15 and 30 min, peptide #3 25-100 ng/ml, Pep-RND 100 ng/ml. The procedure:
Cells were plated in 12-well dishes at 1×10^5 cells/cm^2. On the next day, cells were treated, in starvation medium (EBM-2, heparin 0.1%, BSA 0.1%) with Pep #3 (25-100 ng/ml) or Pep RND (100 ng/ml) peptides for 15 min and 30 min at 37° C. VEGF165 (R & D Systems, Minneapolis, Minn., USA) 25 ng/ml was used as positive control. After treatment, whole cell lysates were obtained by using RIPA lysis buffer (Tris 50 mM pH 7.5, NaCl 150 mM, NP-40 1%, EGTA 1 mM, SDS 0.05%) supplemented with Complete Protease Inhibitors and Phosphate Inhibitors (Pierce Biotechnology, Rockford, Ill.). Cell proteins were then collected after centrifugation and protein content was determined by Bradford method (Bio-Rad, Hercules, Calif.). Proteins were separated by electrophoresis on SDS-polyacrylamide gels and transferred to nitrocellulose membrane (Millipore Corp., Bedford, Mass.) by semi-dry electroblotting (Transblot; Bio-Rad Laboratories, Hercules, Calif.). […]

The test system of another experiment is RB protein. The experiment is described as follows: Western blot of RB phosphorylation in HUVEC. It counts as cell-based, human. Conditions: 24 hours, Pep #3 10-100 ng/ml, VEGF165 25 ng/ml, Pep RND 100 ng/ml. The procedure:
FIG. 3—A) HUVEC cells were incubated in starvation medium (EBM-2, 0.1% heparin, 0.1% BSA) alone or in presence of VEGF165 (25 ng/ml) or with indicated concentrations of Pep #3 or Pep RND (100 ng/ml), for 24, 48 and 72 hours at 37° C. in 5% CO2 atmosphere. Cells were then incubated with CyQUANT® NF reagent for 1 hour at 37° C. and fluorescence intensities of quadruplicate samples were measured with a fluorescence microplate reader using excitation at 485 nm and fluorescence detection at 530 nm. In graph values are calculated as % of proliferating cells compared to controls (untreated cells) at 24, 48 and 72 hours. B) ERK1/2 phosphorylation and phospho-RB was evaluated at 24 hr after stimulation with Pep #3 (10-25-50 and 100 ng/ml), VEGF165 (25 ng/ml) and Pep RND (100 ng/ml). Anti-ERK1/2 and anti-GAPDH antibodies were used as loading control
As a marker of cell proliferation, the RB phosphorylation status was also checked in the same experimental conditions. RB protein, in fact, is able to regulate proliferation by controlling cell cycle progression through the restriction point within the G1 and S phases.

In the case of “KQCLWIRSGDRPWYCTS (disulfide 3-15 (inferred)) [Peptide #4]”, the “effect of VEGF on caspase-3 activity (rescue) when peptide is added” value in the experiment with HUVEC cells [1] is given as “partially abolished”. Moreover, the “angiogenic biological activity (pro- or anti-)” value (shortened to “angiogenic biological activity”) in the experiment on VEGF receptors is reported as “antiangiogenic activity”. Moreover, in the experiment with ERK1/2 (100 ng/mL, 30 min, VEGF 25 ng/ml), the “ERK 1/2 activation of VEGF stimulated HUVE cells” value is on record as “dramatically reduces”. Moreover, the “biological effect (ERK1/2 activation) on untreated HUVE cells” value in the experiment with ERK1/2 (100 ng/mL, 30 min, no VEGF) is “does not show any biological effect”.

On to “KQCMWIKPHQGQWTCTS (disulfide 3-15 (inferred)) [compound 2]”, for which, in the experiment with HUVEC cells [1], the “effect of VEGF on caspase-3 activity (rescue) when peptide is added” value is “partially abolished”. The “angiogenic biological activity” value in the experiment with VEGF receptors is “antiangiogenic activity”.

As for “KQIMWIKPHQGQWIYTS (prepared by chemical synthesis) [compound 1]”, the “angiogenic biological activity” value in the experiment on VEGF receptors is given as “antiangiogenic activity”.

Take “KQLLWIRSGDRPWYYTS (prepared by chemical synthesis) [Peptide #3]”: in the experiment with blood vessel development (100 ng/ml, FITC-lectin positive cells), the “induction of new vessel formation with respect to negative controls” value was determined as 3.8 fold. Further, the “blood vessels development / new vessel formation in angioreactors” value with blood vessel development (subcutaneous angioreactors, peptide #3 100 ng/ml) was “Blood vessels development was observed; also recorded: new vessel formation was observed”. Further, in the experiment on HUVEC cells [2] (25 and 50 ng/ml, 48 and 72 hours), the “cell proliferation at 25 and 50 ng/ml” value is reported as “Considerable effects”. The cell proliferation entry in the experiment with HUVEC cells [2] (serum deprivation, 24, 48 and 72 hours, pep #3 10-25-50-100 ng/ml, Pep RND 100 ng/ml) is “able to induce, in a dose dependent manner, cell proliferation”. Further, the “caspase-3 activity (rescue from apoptosis)” value in the experiment with HUVEC cells [1] (8 hour, without added VEGF, peptide #3 25 ng/ml and 100 ng/ml, vs untreated and Pep-RND-treated cells) is reported as “significantly decreased”. Besides, the “AKT activation (phospho AKT)” value in the experiment with AKT is “displayed ERK1/2 and AKT activation”. For the same sequence, the RB phosphorylation entry in the experiment on RB protein is “enhanced RB phosphorylation”. Also, the “angiogenic biological activity” value in the experiment on VEGF receptors was “proangiogenic biological activity”. For the same sequence, the “ERK1/2 activation after 24 hours of treatment” value in the experiment on ERK1/2 (HUVEC, 24 hours, Pep #3 10-100 ng/ml, VEGF165 25 ng/ml) is on record as “confirmed ERK1/2 activation”. Also, in the experiment on ERK1/2 (HUVEC, serum deprivation, 15 and 30 min, peptide #3 25-100 ng/ml, Pep-RND 100 ng/ml), the “ERK1/2 activation (phospho ERK1/2)” value is “displayed ERK1/2 and AKT activation”.
